Test results as given in US20040097594A1 (priority 1998, published 2004).
Like-named read-outs stand apart in the source and are kept apart here.

Tests used:
HIV-1 (strain IIIB) = assay: microbe, parasite or virus in culture; format: cell-based; details: lower line of each compound's entry, read-out: IC50 (MT-4 cells)
HIV-1 protease = HIV-1 protease (Human immunodeficiency virus type 1 group M subtype B, UniProt P04585); assay: biochemical
[1] = Human immunodeficiency virus 1, 120 h, MT4 cells infected with HIV-1 strain IIIB, 5 days
[2] = HIV-1 protease, upper line of each compound's entry, read-out: Ki (enzyme)

With `CNc1cccc(S(=O)(=O)N(C[C@@H](OP(=O)(O)O)[C@H](Cc2ccccc2)NC(=O)O[C@H]2CO[C@H]3OCC[C@H]32)OC2CCCC2)c1` [Compound 119, Phosphate ester of (3R,3aS,6aR)hexahydrofuro[2,3-b]furan-3-yl N-(1S,2R)-3-[[(3-N-methylaminophenyl)sulfonyl](cyclopentyloxy)amino]-1-benzyl-2-hydroxypropylcarbamate] the IC50 (HIV-1 (strain IIIB); [1]) was > 1 µM and the Ki (HIV-1 protease; [2]) was > 0.1 µM.
`COc1ccc(S(=O)(=O)N(C[C@@H](O)[C@H](Cc2ccccc2)NC(=O)OC(C)(C)C)OC2CCOC2)cc1` (stereo partly drawn) [Compound 20, tert-butyl N-(1S,2R)-1-benzyl-2-hydroxy-3-[[(4-methoxyphenyl)sulfonyl](tetrahydro-3-furanyloxy)amino]propylcarbamate] was tested, and the IC50 (HIV-1 (strain IIIB); [1]) was > 1 µM and the Ki (HIV-1 protease; [2]) was 0.001 to 0.01 µM.
`NC(=O)C[C@H](NC(=O)c1ccc2ccccc2n1)C(=O)N[C@@H](Cc1ccccc1)[C@H](O)CN(OC1CCCC1)S(=O)(=O)c1ccc2cn[nH]c2c1` [Compound 52] was tested, and the IC50 (HIV-1 (strain IIIB); [1]) was ≤ 0.1 µM and the Ki (HIV-1 protease; [2]) was < 0.001 µM.
With `CCOC(=O)CNC(=O)NCCNc1cccc(S(=O)(=O)N(CC(O)C(Cc2ccccc2)NC(=O)OC2COC3OCCC23)OC2CCCC2)c1` (mixture of isomers) [Compound 113, Ethyl 2-[([2-(3-[[(2R,3S)-3-([(3R,3aS,6aR)hexahydrofuro[2,3-b]furan-3-yloxy]carbonylamino)-2-hydroxy-4-phenylbutyl](cyclopentyloxy)amino]sulfonylanilino)ethyl]aminocarbonyl)amino]acetate and ethyl 2-[([2-(3-[[(2R,3S)-3-([(3S,3aR,6aS)hexahydrofuro[2,3-b]furan-3-yloxy]carbonylamino)-2-hydroxy-4 phenylbutyl](cyclopentyloxy)amino]sulfonylanilino)ethyl]aminocarbonyl)amino]acetate] the IC50 (HIV-1 (strain IIIB); [1]) was ≤ 0.1 µM and the Ki (HIV-1 protease; [2]) was < 0.001 µM.
For `O=C(N[C@@H](Cc1ccccc1)[C@H](O)CN(OC1CCCC1)S(=O)(=O)c1ccc2cn[nH]c2c1)O[C@H]1CCOC1` [Compound 58, (3S)Tetrahydro-3-furanyl N-(1S,2R)-1-benzyl-3-[(cyclopentyloxy)(1H-indazol-6-ylsulfonyl)amino]-2-hydroxypropylcarbamate], the IC50 (HIV-1 (strain IIIB); [1]) was 0.1 to 0.5 µM and the Ki (HIV-1 protease; [2]) was < 0.001 µM.
For `CC(C)ON(C[C@@H](O)[C@H](Cc1ccccc1)NC(=O)OC(C)(C)C)S(=O)(=O)c1ccc2[nH]c(NS(C)(=O)=O)nc2c1` [Compound 5], the IC50 (HIV-1 (strain IIIB); [1]) was 0.5 to 1 µM and the Ki (HIV-1 protease; [2]) was 0.001 to 0.01 µM.
For `CCC(CC)ON(C[C@@H](O)[C@H](Cc1ccccc1)NC(=O)O[C@H]1CO[C@H]2OCC[C@H]21)S(=O)(=O)c1ccc(O)cc1` [Example 166, (3R,3aS,6aR)hexahydrofuro[2,3-b]furan-3-yl(1S,2R)-1-benzyl-3-{(1-ethylpropoxy)[(4-hydroxyphenyl)sulfonyl]amino}-2-hydroxypropylcarbamate], the IC50 (HIV-1 (strain IIIB); [1]) was ≤ 0.1 µM and the Ki (HIV-1 protease; [2]) was < 0.001 µM.
For `COc1ccc(S(=O)(=O)N(C[C@@H](O)[C@H](Cc2ccccc2)NC(=O)O[C@H]2CCOC2)OC2CCCCC2)cc1` [Compound 64, (3S)tetrahydro-3-furanyl N-((1S,2R)-1-benzyl-3-(cyclohexyloxy)[(4-methoxyphenyl)sulfonyl]amino-2-hydroxypropyl)carbamate], the IC50 (HIV-1 (strain IIIB); [1]) was > 1 µM and the Ki (HIV-1 protease) was < 0.001 µM.
With `CON(C)C(=O)COc1cccc(S(=O)(=O)N(C[C@@H](O)[C@H](Cc2ccccc2)NC(=O)OC2CO[C@H]3OCC[C@@H]23)OC2CCCC2)c1` (stereo partly drawn) [Compound 137, (3R,3aS,6aR)hexahydrofuro[2,3-b]furan-3-yl N-((1S,2R)-1-benzyl-3-(cyclopentyloxy)[(3-2-[methoxy(methyl)amino]-2-oxoethoxyphenyl)sulfonyl]amino-2-hydroxypropyl)carbamate] the IC50 (HIV-1 (strain IIIB); [1]) was ≤ 0.1 µM and the Ki (HIV-1 protease; [2]) was < 0.001 µM.
`CCC(C)ON(C[C@@H](O)[C@H](Cc1ccccc1)NC(=O)c1cccc(O)c1C)S(=O)(=O)c1ccc(OC)cc1` (stereo partly drawn) [Compound 70] was tested, and the IC50 (HIV-1 (strain IIIB); [1]) was > 0.5 µM and the Ki (HIV-1 protease; [2]) was < 0.001 µM.
With `COC(=O)NCCNc1cccc(S(=O)(=O)N(CC(O)C(Cc2ccccc2)NC(=O)OC2COC3OCCC23)OC2CCCC2)c1` (mixture of isomers) [Compound 124, (3R,3aS,6aR)hexahydrofuro[2,3-b]furan-3-yl N-[(1S,2R)-1-benzyl-3-((cyclopentyloxy)[3-(2-[(methoxycarbonyl)amino]ethylamino)phenyl]sulfonylamino)-2-hydroxypropyl]carbamate and (3S,3aR,6aS)hexahydrofuro[2,3-b]furan-3-yl N-[(1S,2R)-1-benzyl-3-((cyclopentyloxy)[3-(2-[(methoxycarbonyl)amino]ethylamino)phenyl]sulfonylamino)-2-hydroxypropyl)carbamate] the IC50 (HIV-1 (strain IIIB); [1]) was ≤ 0.1 µM and the Ki (HIV-1 protease; [2]) was < 0.001 µM.
In the case of `CC(C)(C)OC(=O)N[C@@H](Cc1ccccc1)[C@H](O)CN(OC1CCCC1)S(=O)(=O)c1ccc2nc(N)[nH]c2c1` [Compound 106, Tert-butyl N-(1S,2R)-1-benzyl-3-[(cyclopentyloxy)(2-amino-1H-benzimidazol-5-ylsulfonyl)amino]-2-hydroxypropylcarbamate], the IC50 (HIV-1 (strain IIIB); [1]) is reported as 0.1 to 0.5 µM and the Ki (HIV-1 protease; [2]) is reported as < 0.001 µM.
In the case of `O=C(N[C@@H](Cc1ccccc1)[C@H](O)CN(OC1CCCC1)S(=O)(=O)c1ccc2nc[nH]c2c1)O[C@H]1CO[C@H]2OCC[C@H]21` [Compound 46, (3R,3aS,6aR)hexahydrofuro[2,3-b]furan-3-yl N-(1S,2R)-3-[(1H-benzimidazol-6-ylsulfonyl)(cyclopentyloxy)amino]-1-benzyl-2-hydroxypropylcarbamate], the IC50 (HIV-1 (strain IIIB); [1]) is reported as ≤ 0.1 µM and the Ki (HIV-1 protease; [2]) is reported as < 0.001 µM.
`CC(C)(C)OC(=O)N[C@@H](Cc1ccccc1)[C@H](O)CN(OC1CCCC1)S(=O)(=O)c1ccc2[nH]c(NC(=O)N3CCOCC3)nc2c1` [Compound 8] was tested, and the IC50 (HIV-1 (strain IIIB); [1]) was 0.5 to 1 µM and the Ki (HIV-1 protease; [2]) was < 0.001 µM.
`O=C(N[C@@H](Cc1ccccc1)[C@H](O)CN(OC1CCCC1)S(=O)(=O)c1cccc(O)c1)O[C@H]1CO[C@H]2OCC[C@H]21` [Compound 44, (3R,3aS,6aR)hexahydrofuro[2,3-b]furan-3-yl N-((1S,2R)-1-benzyl-3-(cyclopentyloxy)[(3-hydroxyphenyl)sulfonyl]amino-2-hydroxypropyl)carbamate] was tested, and the IC50 (HIV-1 (strain IIIB); [1]) was ≤ 0.1 µM and the Ki (HIV-1 protease; [2]) was < 0.001 µM.
For `O=C(N[C@@H](Cc1ccccc1)[C@H](O)CN(OC1CCOCC1)S(=O)(=O)c1ccc2c(c1)OCO2)O[C@H]1CO[C@H]2OCC[C@H]21` [Compound 151, (3R,3aS,6aR)hexahydrofuro[2,3-b]furan-3-yl 3-[(1,3-benzodioxol-5-ylsulfonyl)(tetrahydro-2H-pyran-4-yloxy)amino]-1-benzyl-2-hydroxypropylcarbamate], the IC50 (HIV-1 (strain IIIB); Human immunodeficiency virus 1, IIIB, MT4, 120 h, […]) was ≤ 0.1 µM and the Ki (HIV-1 protease; [2]) was < 0.001 µM.
With `O=C(N[C@@H](Cc1ccccc1)[C@H](O)CN(OC1CCCCC1)S(=O)(=O)c1cccc(O)c1)O[C@H]1CO[C@H]2OCC[C@H]21` [Example 159, (3R,3aS,6aR)hexahydrofuro[2,3-b]furan-3-yl(1S,2R)-1-benzyl-3-{(cyclohexyloxy)[(3-hydroxyphenyl)sulfonyl]amino}-2-hydroxypropylcarbamate] the IC50 (HIV-1 (strain IIIB); [1]) was ≤ 0.1 µM and the Ki (HIV-1 protease; [2]) was < 0.001 µM.
For `COc1ccc(S(=O)(=O)N(C[C@@H](O)[C@H](Cc2ccccc2)NC(=O)OC2CO[C@H]3OCC[C@@H]23)OC2CCOCC2)cc1` (stereo partly drawn) [Compound 73, (3R,3aS,6aR)hexahydrofuro[2,3-b]furan-3-yl N-(1S,2R)-1-benzyl-2-hydroxy-3-[[(4-methoxyphenyl)sulfonyl](tetrahydro-2H -pyran-4-yloxy)amino]propylcarbamate], the IC50 (HIV-1 (strain IIIB); [1]) was ≤ 0.1 µM and the Ki (HIV-1 protease; [2]) was < 0.001 µM.
